Here are results for 20 compounds from patent US11999715B2, “ASK1 inhibiting agents” (BIOGEN MA INC., priority 2018, dated 2024).

Test [1] addresses T1, ASK1/MAP3K5 (Homo sapiens, UniProt Q99683).
T1 sequence (Q99683 1-1374): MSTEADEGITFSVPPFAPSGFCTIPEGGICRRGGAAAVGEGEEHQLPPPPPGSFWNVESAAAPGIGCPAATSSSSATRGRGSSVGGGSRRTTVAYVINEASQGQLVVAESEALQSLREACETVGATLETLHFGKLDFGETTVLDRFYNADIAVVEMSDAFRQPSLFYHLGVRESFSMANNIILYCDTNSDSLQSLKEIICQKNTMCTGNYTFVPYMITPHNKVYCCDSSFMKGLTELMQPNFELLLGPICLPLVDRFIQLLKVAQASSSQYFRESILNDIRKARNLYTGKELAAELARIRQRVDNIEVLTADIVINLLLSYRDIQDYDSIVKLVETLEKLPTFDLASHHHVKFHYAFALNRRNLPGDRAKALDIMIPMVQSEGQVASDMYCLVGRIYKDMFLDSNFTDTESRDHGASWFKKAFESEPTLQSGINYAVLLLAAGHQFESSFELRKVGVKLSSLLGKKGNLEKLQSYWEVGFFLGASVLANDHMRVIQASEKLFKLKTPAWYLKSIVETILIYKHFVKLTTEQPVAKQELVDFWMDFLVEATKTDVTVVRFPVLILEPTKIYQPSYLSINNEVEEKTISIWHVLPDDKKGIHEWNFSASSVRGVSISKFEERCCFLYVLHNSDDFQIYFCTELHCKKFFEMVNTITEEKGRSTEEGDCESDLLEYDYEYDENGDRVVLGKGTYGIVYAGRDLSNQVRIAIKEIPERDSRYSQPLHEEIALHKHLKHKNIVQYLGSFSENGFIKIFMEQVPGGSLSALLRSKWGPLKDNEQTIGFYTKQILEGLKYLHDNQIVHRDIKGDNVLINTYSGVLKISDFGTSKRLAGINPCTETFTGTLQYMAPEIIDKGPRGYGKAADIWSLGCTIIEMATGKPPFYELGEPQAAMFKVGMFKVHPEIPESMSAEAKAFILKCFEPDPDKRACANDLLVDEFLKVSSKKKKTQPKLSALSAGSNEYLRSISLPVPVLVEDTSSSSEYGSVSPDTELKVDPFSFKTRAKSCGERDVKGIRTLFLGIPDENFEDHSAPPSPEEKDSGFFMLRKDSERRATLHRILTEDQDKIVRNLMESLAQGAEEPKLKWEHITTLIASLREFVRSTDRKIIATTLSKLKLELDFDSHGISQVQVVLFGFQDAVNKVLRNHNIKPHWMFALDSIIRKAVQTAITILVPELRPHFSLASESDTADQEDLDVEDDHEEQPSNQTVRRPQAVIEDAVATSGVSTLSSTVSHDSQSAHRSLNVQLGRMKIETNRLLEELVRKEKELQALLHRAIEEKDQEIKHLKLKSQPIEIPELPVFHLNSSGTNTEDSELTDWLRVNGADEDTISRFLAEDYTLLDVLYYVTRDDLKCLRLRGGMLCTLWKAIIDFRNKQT
In words: ASK1/MAP3K5 kinase assay by Reaction Biology Corp. (headed ASK1 TR-FRET Assay). As to conditions: 20 μM myelin basic protein, 10 μM ATP, class symbols. In kind it is biochemical. An outline of the steps: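 Radiometric filter-binding assay with ASK1/MAP3K5, 20 μM MBP substrate and 10 μM ATP plus ^33P-ATP in HEPES pH 7.5 buffer with 1% DMSO. Compounds were preincubated with kinase 20 min, and the reaction then ran 2 hours at room temperature.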
For orientation: Time-resolved FRET reads energy transfer from a long-lived donor to a nearby acceptor.

Test [2] has as its target T2, ASK1 T838 auto phosphorylation (Homo sapiens, UniProt Q99683).
T2 sequence (Q99683 1-1374): T1 sequence (Q99683 1-1374)
In words: ASK1 (AUTO PHOS T838) assay, MSD format, in HEK-293T cells transfected with ASK1-V5. Format: cell-based. The settings on record: ASK1 T838 auto phosphorylation in HEK-293T cells, 1 hr compound incubation; class symbols. An outline of the steps: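 HEK-293T cells transiently transfected with full-length ASK1-V5 plasmid were replated, then treated 1 h at 37 °C with a 10-point, 3-fold series from 20 μM. Lysates were probed by MSD with anti-pASK1 T838 and a sulfo-tag secondary, read by chemiluminescence. IC50 came from a 4-parameter fit of normalized % activity.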

What is called IC50 is the midpoint of a concentration-inhibition curve. Lower therefore signals greater potency in that assay. In the case of `COCCn1cc(C(=O)Nc2cccc(-c3nncn3[C@@H](C)C(F)(F)F)n2)c(OC)n1` [Example 52, (S)-3-Methoxy-1-(2-methoxyethyl)-N-(6-(4-(1,1,1-trifluoropropan-2-yl)-4H-1,2,4-triazol-3-yl)pyridin-2-yl)-1H-pyrazole-4-carboxamide], the IC50 in test [1] is at most 0.1 µM; in test [2], at most 1 µM.
In the case of `COCCn1cc(C(=O)Nc2cccc(-c3nncn3[C@H](C)C(F)(F)F)n2)c(OC)n1` [Example 53, (R)-3-Methoxy-1-(2-methoxyethyl)-N-(6-(4-(1,1,1-trifluoropropan-2-yl)-4H-1,2,4-triazol-3-yl)pyridin-2-yl)-1H-pyrazole-4-carboxamide], the figures for the IC50 in test [1] and in test [2] were 0.1 to 1 µM and at most 1 µM, respectively.
As to `COCCn1cc(C(=O)Nc2cccc(-c3nncn3C3CC3)n2)c(OC)n1` [Example 54, N-(6-(4-Cyclopropyl-4H-1,2,4-triazol-3-yl)pyridin-2-yl)-3-methoxy-1-(2-methoxyethyl)-1H-pyrazole-4-carboxamide], the IC50 in test [1] was at most 0.1 µM; in test [2] it was at most 1 µM.
In the same order, the values of `C=CCn1cc(C(=O)Nc2cccc(-c3nncn3C(C)C)n2)c(OC)n1` [Example 55, 1-Allyl-N-(6-(4-isopropyl-4H-1,2,4-triazol-3-yl)pyridin-2-yl)-3-methoxy-1H-pyrazole-4-carboxamide] are at most 0.1 µM and at most 1 µM.
For `C=CCn1cc(C(=O)Nc2cccc(-c3nncn3[C@@H](C)C(F)(F)F)n2)c(OC)n1` [Example 57, (S)-1-Allyl-3-methoxy-N-(6-(4-(1,1,1-trifluoropropan-2-yl)-4H-1,2,4-triazol-3-yl)pyridin-2-yl)-1H-pyrazole-4-carboxamide] the same measures were at most 0.1 µM and at most 1 µM.
In the same order, the values of `CCCn1cc(C(=O)Nc2cccc(-c3nncn3C(C)C(F)(F)F)n2)c(OC)n1` (stereo not shown) [Example 59, 3-Methoxy-1-propyl-N-(6-(4-(1,1,1-trifluoropropan-2-yl)-4H-1,2,4-triazol-3-yl)pyridin-2-yl)-1H-pyrazole-4-carboxamide] are at most 0.1 µM and at most 1 µM.
`COc1nn(-c2cc(C#N)ccn2)cc1C(=O)Nc1cccc(-c2nncn2C(C)C)n1` [Example 65, 1-(4-Cyanopyridin-2-yl)-N-(6-(4-isopropyl-4H-1,2,4-triazol-3-yl)pyridin-2-yl)-3-methoxy-1H-pyrazole-4-carboxamide]: the IC50 was at most 0.1 µM in test [1] and at most 1 µM in test [2].
For `COc1nn(-c2cncc(C)c2)cc1C(=O)Nc1cccc(-c2nncn2C(C)C)n1` [Example 67, N-(6-(4-Isopropyl-4H-1,2,4-triazol-3-yl)pyridin-2-yl)-3-methoxy-1-(5-methylpyridin-3-yl)-1H-pyrazole-4-carboxamide] the same measures were at most 0.1 µM and at most 1 µM.
For `COc1nn(-c2cncc(C#N)c2)cc1C(=O)Nc1cccc(-c2nncn2C(C)C)n1` [Example 69, 1-(5-Cyanopyridin-3-yl)-N-(6-(4-isopropyl-4H-1,2,4-triazol-3-yl)pyridin-2-yl)-3-methoxy-1H-pyrazole-4-carboxamide] the same measures were at most 0.1 µM and at most 1 µM.
Regarding `COc1nn(-c2cncc(O)c2)cc1C(=O)Nc1cccc(-c2nncn2C(C)C)n1` [Example 70, 1-(5-Hydroxypyridin-3-yl)-N-(6-(4-isopropyl-4H-1,2,4-triazol-3-yl)pyridin-2-yl)-3-methoxy-1H-pyrazole-4-carboxamide], the IC50 in test [1] is at most 0.1 µM; in test [2] it was 1 to 10 µM.
In the same order, the values of `COc1cncc(-n2cc(C(=O)Nc3cccc(-c4nncn4C(C)C)n3)c(OC)n2)c1` [Example 71, N-(6-(4-Isopropyl-4H-1,2,4-triazol-3-yl)pyridin-2-yl)-3-methoxy-1-(5-methoxypyridin-3-yl)-1H-pyrazole-4-carboxamide] are at most 0.1 µM and at most 1 µM.
For the compound `COc1nn(-c2cncc(OC(C)C)c2)cc1C(=O)Nc1cccc(-c2nncn2C(C)C)n1` [Example 72, 1-(5-Isopropoxypyridin-3-yl)-N-(6-(4-isopropyl-4H-1,2,4-triazol-3-yl)pyridin-2-yl)-3-methoxy-1H-pyrazole-4-carboxamide], the figures for the IC50 in test [1] and in test [2] were at most 0.1 µM and at most 1 µM, respectively.
Take `CC(C)n1cnnc1-c1cccc(NC(=O)c2cn(-c3cncc(Br)c3)nc2C(F)F)n1` [Example 74, 1-(5-Bromopyridin-3-yl)-3-(difluoromethyl)-N-(6-(4-isopropyl-4H-1,2,4-triazol-3-yl)pyridin-2-yl)-1H-pyrazole-4-carboxamide]: the IC50 is at most 0.1 µM in test [1] and at most 1 µM in test [2].
For `Cc1cncc(-n2cc(C(=O)Nc3cccc(-c4nncn4C(C)C)n3)c(C(F)F)n2)c1` [Example 75, 3-(Difluoromethyl)-N-(6-(4-isopropyl-4H-1,2,4-triazol-3-yl)pyridin-2-yl)-1-(5-methylpyridin-3-yl)-1H-pyrazole-4-carboxamide] the same measures were at most 0.1 µM and at most 1 µM.
For `CC(C)n1cnnc1-c1cccc(NC(=O)c2cn(-c3cncc(C#N)c3)nc2C(F)F)n1` [Example 76, 1-(5-Cyanopyridin-3-yl)-3-(difluoromethyl)-N-(6-(4-isopropyl-4H-1,2,4-triazol-3-yl)pyridin-2-yl)-1H-pyrazole-4-carboxamide] the same measures were at most 0.1 µM and at most 1 µM.
For the compound `CC(C)n1cnnc1-c1cccc(NC(=O)c2cn(-c3cncc(C4CC4)c3)nc2C(F)F)n1` [Example 77, 1-(5-Cyclopropylpyridin-3-yl)-3-(difluoromethyl)-N-(6-(4-isopropyl-4H-1,2,4-triazol-3-yl)pyridin-2-yl)-1H-pyrazole-4-carboxamide], the IC50 in test [1] is at most 0.1 µM; in test [2], at most 1 µM.
In the case of `COc1cncc(-n2cc(C(=O)Nc3cccc(-c4nncn4C(C)C)n3)c(C(F)F)n2)c1` [Example 78, 3-(Difluoromethyl)-N-(6-(4-isopropyl-4H-1,2,4-triazol-3-yl)pyridin-2-yl)-1-(5-methoxypyridin-3-yl)-1H-pyrazole-4-carboxamide], the IC50 is at most 0.1 µM in test [1] and at most 1 µM in test [2].
For the compound `CC(C)n1cnnc1-c1cccc(NC(=O)c2cn(-c3cncc(N(C)C)c3)nc2C(F)F)n1` [Example 79, 3-(Difluoromethyl)-1-(5-(dimethylamino)pyridin-3-yl)-N-(6-(4-isopropyl-4H-1,2,4-triazol-3-yl)pyridin-2-yl)-1H-pyrazole-4-carboxamide], the values for the IC50 in test [1] and in test [2] were at most 0.1 µM and at most 1 µM, respectively.
For `CC(C)n1cnnc1-c1cccc(NC(=O)c2cn(-c3cncc(O)c3)nc2C(F)F)n1` [Example 80, 3-(Difluoromethyl)-1-(5-hydroxypyridin-3-yl)-N-(6-(4-isopropyl-4H-1,2,4-triazol-3-yl)pyridin-2-yl)-1H-pyrazole-4-carboxamide] the same measures were at most 0.1 µM and at most 1 µM.
With `CC(C)Oc1cncc(-n2cc(C(=O)Nc3cccc(-c4nncn4C(C)C)n3)c(C(F)F)n2)c1` [Example 81, 3-(Difluoromethyl)-1-(5-isopropoxypyridin-3-yl)-N-(6-(4-isopropyl-4H-1,2,4-triazol-3-yl)pyridin-2-yl)-1H-pyrazole-4-carboxamide], the IC50 in test [1] is at most 0.1 µM; in test [2], at most 1 µM.
